Five compounds from US20240226357A1, “Sanitization Method for Affinity Chromatography Matrices” (priority 2015, published 2024) can be followed below.

Like-named read-outs stand apart in the source and are kept apart here. Some results are limits rather than exact numbers.

The test system of data set [1] is monoclonal antibody immobilized on a Biacore chip. In words: Biacore (SPR) binding kinetics of ligands before and after incubation in 0.1 M peracetic acid. The conditions noted are these: ligand incubated for 0 to 24 h in 0.1 M PAA. (In general: Surface plasmon resonance follows binding to a sensor surface in real time, without labels.)
Experimental: The kinetics was measured by Surface Plasmon Resonance on a Biacore™ instrument. […] Reference sample (0 h) was withdrawn, 100 μl and buffer exchanged to 50 mM Ammonium Bicarbonate. • 4. 10% 1 M PAA was added and the incubations started. • 5. Samples were withdrawn after 1, 2, 4, 8, 16 and 24 h, 100 μl and buffer exchanged to 50 mM Ammonium Bicarbonate to stop the oxidation reaction. • 6. The concentrations were measured in all samples by measuring the UV absorbance at 276 nm. • 7. The samples were then analyzed on LC-MS and Biacore.
Data set [2] has as its system Bacillus subtilis (spores). In words: Disinfectant challenge test in Capto L 50% slurry, viable count of spores. Type of data set: cell-based. The conditions noted are these: for Log10 reduction of Bacillus subtilis spores: mean of duplicates. As to the method:
(§1) The purpose of this investigation was to evaluate the bactericidal and sporicidal effect on • bacterial spores and bacteria of eight disinfectants as well as PBS as reference added to • Capto L 50% slurry. The effect was tested with contact times of 0 and 15 minutes as well as • 1, 4, and 24 hours.
(§2) The test was performed in slurries of Capto L 50% and disinfectants. Microorganisms were • added at a concentration of approximately 10^7 cfu/mL to the suspension and the reducing effect was evaluated after given time intervals by neutralizing the disinfectant. […] The results were evaluated with regard to log10 reductions of the microorganisms Bacillus subtilis (spores) and Pseudomonas aeruginosa (vegetative bacteria).
(§3) 10^7 cfu/mL of the microorganism was added to 10 mL of Capto L 50% slurry with disinfectant. Samples were mixed and duplicate samples of 0.1 mL were added to 50 mL of neutralizing agent (0.075 M phosphate buffer with 0.3% lecithin, 3.0% Tween 80, 0.5% sodium thiosulfate and 0.1% L-histidine). The total solution was analyzed by filtrating fractions corresponding to 10-times serial dilutions. Filters were rinsed three times with 100 mL of 0.9% NaCl. As positive control each microorganism was added to 50 mL of neutralizing agent, the same amount added as for the disinfectant challenge tests. The total solution was analyzed by filtrating fractions corresponding to 10-times serial dilutions. Filters were rinsed three times with 100 mL of 0.9% NaCl. Filters were incubated on TSA (Trypticase Soy Agar) at 30-35° C. for 2-5 days. Preliminary reading was performed after 1-3 days. The reduction of microorganisms was calculated as the log10 of the surviving microorganisms as compared to that of the positive control.

Data set [3] deals with Pseudomonas aeruginosa (vegetative bacteria). Briefly: Disinfectant challenge test in Capto L 50% slurry, viable count of vegetative bacteria. Type of data set: cell-based. Conditions: mean of duplicates. As to the method:
as §1, §2, §3

The next data set has as its system Fab. Conditions: Capto L, compared to PBS control.
Where [4] appears, read: 4 h incubation in SIP solution, 90' incubation with Fab sample.
The mark [5] stands for this setting: 24 h incubation in SIP solution, 10' incubation with Fab sample.

Experimental for Fab: A PreDictor™ (GE Healthcare) 96-well filter plate with 6 microliters Capto L in each well was subjected to the following procedure: • Removal of PreDictor storage solution (20% Ethanol) • Wash: 3×200 μl 20 mM phosphate, 150 mM NaCl pH 7.4 • Wash 3×200 μl MilliQ • Addition of 600 μl SIP solutions and 20 mM phosphate, 150 mM NaCl pH 7.4 (control) (48 solutions and duplicates in plate) • Sealing of bottom and top of the plates with Parafilm • Incubation in SIP solutions for 4 or 24 hours with shaking at 450 rpm • Liquids were removed by centrifugation (500×g, 1 min).
The static binding capacity (SBC) of a Fab was determined by: • 1. Removal of SIP solutions • 2. Wash: 1x600 μl MilliQ, 1x600 μl PBS • 3. Equilibration: 3x200 μl 20 mM phosphate, 150 mM NaCl pH 7.4 • 4. Sample loading: 200 μl Fab at a concentration of 2.5 mg/mL, incubation 10 min and 90 min at 1100 rpm • 5. Collection of unbound sample in UV-readable plates and measurement of UV absorbance at 280 (and 254 nm)
Liquids were removed by centrifugation (500×g, 1 min).
The UV absorbance of the PBS buffer at 280 nm (path check on) was subtracted from the UV absorbance of the flow through fraction (A280-blank280)
The concentration in the flow through fraction was calculated using a standard curve (A280-blank280)/1.2796
[formula] • Vsample=200μl • Vmedium=6 μl • Vr=6+0.6*Vmedium=9.6 • Vr: The retained volume i.e. filter volume (6 μl) and liquid volume in resin (0.6*6)

With rPrA: recombinant Protein A, the “Affinity before and after SIP” value in data set [1] is listed as “some loss in affinity with increasing SIP treatment”.

As for `CC(=O)OO` [0.1M Peracetic acid, peracetic acid], the “Killing of B. subtilis spores (in words)” value in data set [2] (among the tested disinfectants) is given as “capable of efficiently killing B. subtilis spores”. Also, the “Log10 reduction of Bacillus subtilis spores” value is recorded as 5.6 log10 in data set [2] (contact time 0 min); greater than 6.9 log10 in data set [2] (contact time 15 min); greater than 6.9 log10 in data set [2] (contact time 1 hour); greater than 6.9 log10 in data set [2] (contact time 4 hours); greater than 6.9 log10 in data set [2] (contact time 24 hours). In addition, the “Log10 reduction of Pseudomonas aeruginosa” value in data set [3] (contact time 0 min), in data set [3] (contact time 15 min), in data set [3] (contact time 1 hour), in data set [3] (contact time 4 hours) and in data set [3] (contact time 24 hours) was greater than 6.9 log10 each time. The “Relative remaining SBC (%)” value in the data set on Fab (4 h incubation in SIP solution, 10' incubation with Fab sample, listed as 100 mM Peracetic acid) is given as 109%; in the data set on Fab (4 h incubation in SIP solution, 90' incubation with Fab sample, listed as 100 mM Peracetic acid), 101%; in the data set with Fab (24 h incubation in SIP solution, 10' incubation with Fab sample, listed as 100 mM Peracetic acid), 107%.

`N=C(NCCCCCCNC(=N)NC(=N)Nc1ccc(Cl)cc1)NC(=N)Nc1ccc(Cl)cc1.O=C(O)[C@H](O)[C@@H](O)[C@H](O)[C@H](O)CO.O=C(O)[C@H](O)[C@@H](O)[C@H](O)[C@H](O)CO` [2% Chlorhexidine digluconale, Chlorhexidine digluconale]: the “Log10 reduction of Bacillus subtilis spores” value in data set [2] (contact time 0 min) is 1.3 log10; in data set [2] (contact time 15 min) it was 1.2 log10; in data set [2] (contact time 1 hour), 0.7 log10; in data set [2] (contact time 4 hours) it was 1.6 log10; in data set [2] (contact time 24 hours), 0.2 log10. In addition, the “Log10 reduction of Pseudomonas aeruginosa” value in data set [3] (contact time 0 min), in data set [3] (contact time 15 min), in data set [3] (contact time 1 hour), in data set [3] (contact time 4 hours) and in data set [3] (contact time 24 hours) was greater than 6.9 log10 each time.

For the compound `CC(=O)OO` [500 mM Peracetic acid, Peracetic acid], the “Relative remaining SBC (%)” value with Fab (setting [4]) was found to be 103%; in the data set with Fab (setting [5]) it was 97%; with Fab (24 h incubation in SIP solution, 90' incubation with Fab sample), 102%.

As for `OO` [5% H2O2, hydrogen peroxide], the “Relative remaining SBC (%)” value in the data set with Fab (setting [4]) and in the data set on Fab (setting [5]) was 102% each time.
